Measurements from US7220822B2, “CD28 mimetics for blocking T cell mediated immune reactions” (The Ohio State University, priority 2000, dated 2007).
Square brackets hold non-standard residues; d marks the D form. Peptide text beside a SMILES is read from it.

What was measured:
CD80-Ig = target: T1, CD80-Ig (Homo sapiens, UniProt P33681); test: Direct kinetic analysis of CD28 peptide binding to immobilized CD80-Ig by surface plasmon resonance (BIACORE)
T1 construct: extracellular domain of CD80 fused with the constant region of mouse IgG1 heavy chain
T1 sequence (P33681 35-242 limits assumed, other chains not shown): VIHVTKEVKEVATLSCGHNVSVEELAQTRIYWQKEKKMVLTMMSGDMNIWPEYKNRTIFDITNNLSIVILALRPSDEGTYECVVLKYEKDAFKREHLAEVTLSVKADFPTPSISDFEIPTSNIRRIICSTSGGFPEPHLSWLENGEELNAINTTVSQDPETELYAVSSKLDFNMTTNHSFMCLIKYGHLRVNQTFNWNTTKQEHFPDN
Method: Binding experiments were performed by surface plasmon resonance (SPR) on an instrument sold under the trademark BIACORE™ from Pharmacia Biosensor (Uppasala, Sweden).
CD80-Ig (extracellular domain of CD80 fused with the constant region of mouse IgG1 heavy chain) at 35 μg/ml in 10 mM sodium acetate buffer, pH 4.2, was coupled to a research grade CM 5 sensor chip using a standard amine coupling procedure with the following modifications (38). To reduce the immobilization level of the ligand, the surface was activated for 3 (instead of 7) minutes with N-hydroxysuccinamide and […]. […] Following coupling, noncovalently bound ligand was removed by washing twice with 5 mM NaOH.
The analytes were also injected at the same concentration and injection times over an empty flow cell with nothing immobilized.
Data analysis was performed with BIAEVALUATION™ software version 2.1(Pharmacia Biosensor AB). […] Prior to kinetic analysis, data were adjusted to zero baseline level by subtracting the background responses obtained by injection of the analytes through a control flow cell with no ligand immobilized. First, the dissociation rate constant, kd, (units: s^−1) was determined, by fitting experimental data from the buffer flow part of the sensogram to the equation R(t)=R1*e^−kd*(t^0^−t^1^) (1) where t0 is the injection time, R1 is the response level at the start of dissociation time t1 and kd is the dissociation rate constant.
The kd value obtained was used as a constant during the analysis of the injection phase data. Binding data above the noise level was selected by converting the sensogram to a plot of the logarithm of the binding rate vs time (dR/dt vs. time). The ka was determined by nonlinear curve fitting of the following equation R(t)=Req*{1−e^−(k^a^*C+k^d^)*(t) (2) where R(t) is the response at time t, Req is the steady state response level, ka is the association rate constant (units: M^−1s^−1), kd is the dissociation rate constant and C is the concentration of the injected peptide analyte. An offset was added to account for the refractive index differences between the analyte and the running buffer.
After analyzing sensograms obtained from injections of increasing concentrations of peptide analytes or CD28-Ig, the experimental data was analyzed using the BIAsimulation software 2.1. A plot of the logarithm of (dR/dt) against time was calculated from the sensograms, and then the slopes at different concentrations were plotted against the concentrations of the peptide analyte. Different angles obtained of the linear lines represent the variation of affinities, which gives the association rate constant (ka) from the equation ln dR/dt=ln(kaCR max)−KaC+kd)t (4) where dR/dt is the rate of change of the SPR signal, C is the concentration of the analyte, Rmax is the maximum analyte binding capacity in RU and R is the SPR signal in RU at time t. The dissociation rate constant is obtained from the equation Kd=kd/ka (5)

[1] = test system: CD4+ LNC from Vα4/Vβ8.2 TCR transgenic mice; type: cell-based, mouse; details: CD4+ LNC and spleen cells, NAc 1-11 10 μg/ml, all concentrations used
Method: The in vitro effect of varying concentration of the CD 28 peptide mimetics on CD4+ lymph node cells and spleen cells from transgenic mice bearing the Vα 4 Vβ8.2 TCR specific for MBP Ac 1-11 was determined.
CD4+ T cells were purified from pooled peripheral lymph nodes (inguinal, axillary, brachial, cervical, popliteal), and mesenteric lymph nodes and spleen of 6–8 wk old Vα4/Vβ8.2 TCR transgenic mice by positive selection. Single cell suspensions were prepared by lympholyte M gradient, washed, counted and incubated with magnetic bead conjugated anti-mouse CD4 (L3T4) (Miltenyi Biotech Corporation) followed by positive selection using magnetic selection columns. Purity of the CD4^+ cells was greater than 90% as assessed by staining with FITC labeled anti-mouseVβ8.2 mAb (Pharmingen). During the selection process, T cells maintain a naïve phenotype with no evidence for T cell activation as measured by proliferation in culture. Purified CD4+ T-cells (5×10^4 cells/well) were cultured together with wild type splenocytes from B10.PL mice as APC's (10^5 cells/well) in RPMI 1640 containing 10% FCS, 25 mM HEPES, 2 mM L-glutamine, 50 U/ml penicillin, 50 μg/ml streptomycin, and 5×10–5 M 2-ME in round-bottom 96-well plates and MBP (40 μg/ml) or MBP NAc1-11 (10 μg/ml) or media only in the presence or absence of synthetic CD28 peptide analogues at different concentrations in triplicate wells for 72 h, including a final 18-h pulse with [^3H] thymidine. Cultures were harvested onto glass-fiber mats using a Skatron harvester (Skatron, Sterling, Va.) and were counted by liquid scintillation on LKB Betaplate (LKB, Rockville, Md.). The means of the triplicate were determined and the results are expressed as delta cpm (mean counts per minute of cultures with Ag-mean counts per minute of cultures with medium alone)±SD.

B10.PL mice with EAE = test: EAE in B10.PL mice immunized with GP-MBP in CFA, clinical score; type: in vivo, mouse; details: for mean maximal clinical score: single i.v. 500 μg on day 14 post-immunization (established EAE); for maximum disease incidence / maximum mean cumulative score per day: single i.v. 500 μg on the day of immunization
Method: Female B10.PL mice (6–8 wk old) were obtained from The Jackson laboratory (Bar Harbor, Me.) and housed at the Ohio State University, (Columbus, Ohio).
Mice were injected subcutaneously over four sites on the flank with an emulsion containing 200 μg of guinea-pig-MBP in CFA containing 200 μg heat killed Mycobacterium tuberculosis, Jamaica strain. Pertussis toxin (List Biological, Campbell, Calif.) at 150 ng in 0.2 ml of PBS was given intraperitoneally at the time of immunization and 48 hours later. Animals were observed daily for clinical signs and scored as follows: 1, limp tail or waddling gait with tail tonicity; 2, waddling gait with limp tail (ataxia); 2.5 ataxia with partial paralysis of one limb, 3, partial hind-limb paralysis, 3.5 full paralysis of one limb with partial paralysis of the second limb, 4, full paralysis of two limbs, 4.5 moribund and 5, death. All mice immunized with MBP (200 μg) in CFA developed clinical disease varying between ataxia and complete hind limb paralysis by day 14 post-immunization. They were then distributed randomly into six groups with mean clinical score of each group approximately the same.
Groups of mice were left untreated or injected intravenously with 500 μg of EL CD28 or RI CD28 peptide mimetics, or LCD28, RLCD28 and DCD28 peptides. The mean clinical score of untreated mice continued to increase reaching a maximum of 3.4 on day 20. Similarly the disease continued to progress in mice treated with LCD28, RLCD28 and DCD28, reaching mean maximal clinical score of 3.8 (day 18), 3.4 (day 16 ) and 3.7 (day 16) respectively.
The biological activity of synthetic CD28 peptide analogues during antigen priming in vivo in EAE was then shown. B10.PL mice immunized with GP-MBP (200 μg) in CFA were either left untreated or injected intravenously 500 μg of EL CD28 or RI CD28 peptide mimetics or LCD28, RLCD28 and DCD28 peptides on the day of immunization. The vehicle treated mice and mice treated with: LCD28, RL CD28 and D CD28 peptide had maximum disease incidence of 100%, 100%, 91.5% and 91.5% and maximum mean cumulative score per day of 1.9, 1.8, 1.7 and 2 respectively. […] The effect of RI CD28 peptide injection lasted for the duration of observation (37 days) in one experiment.

[2] = test system: lymph node cells of MBP-primed mice; test: IL-2 ELISPOT of draining lymph node cells from peptide-treated MBP-immunized mice; type: in vivo, mouse; details: mice treated on day 0 of immunization, ELISPOT on restimulation
Method: Ninety-six well unifilter plates (Polyfiltronics, Rockland, Md.) were coated overnight at 4° C. with rat anti-mouse IL-2 (Clone JES6-1A12) (Pharmingen, Calif.) at 4 μg/ml. The plates were then washed 4× with sterile PBS and blocked with 1% BSA in DMEM for 2 h at room temperature. Subsequently, isolated single cell suspensions of CD4+ LNC (5×10^6 cells/ml) and splenocytes (10×10^6 cells/ml) were added with the antigens and CD28 peptides under the conditions as specified for the proliferation assays. After 24 h of culture in the incubator, the cells were removed by washing 3× with PBS and 4× with PBS containing Tween (1:2000) (PBST). Then biotinylated anti mouse-IL-2 (Clone JES6-5H4) (Pharmingen, Calif.) 2 μg/ml was added and incubated at 4° C. overnight. After washing 3× with PBST and 3× with PBS, goat anti-biotin antibody conjugated to alkaline phosphatase (Vector Laboratories Inc, Burlingame, Calif.) diluted to 1:1000 in PBST containing 1% BSA was added and incubated for 2 h at room temperature. The spots were visualized by adding BCIP/NBT phosphatase substrate (Kirkeguard & Perry Laboratories, Gaithesburg, Md.). Image analysis of ELISA spot assays was performed on a Series 1 Immunospot Image Analyzer (Autoimmun Diagnostika (US) Inc.) customized for analyzing ELISA spots to meet objective criteria for size, chromatic density, shape and color.
MBP reactive T cells that induce EAE are known to display a Th1 phenotype secreting the proinflammatory cytokines IL-2, […] and TNF-β (36. Kay, B. K., M. P. Williamson, and M. Sudol. 2000. Faseb J 14, no. 2:231). ELISPOT assay was used to assess in vitro cytokine production by draining lymph node cells and splenocytes upon restimulation from in vivo MBP-primed T cells. Mice were treated as described in Example 3, on day 0 of immunization.

maximum response units obtained for binding to CD80-Ig (CD80-Ig; SPR direct binding) | binding to CD80-Ig (in words) (CD80-Ig; data not shown) | Compound | proliferative response / inhibition of T cell proliferation (in words) [1] | mean maximal clinical score (B10.PL mice with EAE) | maximum disease incidence (B10.PL mice with EAE) | maximum mean cumulative score per day (B10.PL mice with EAE) | frequency of IL-2 secreting lymph node cells [2]
478 RU |  | CC[C@H](C)[C@H](NC(=O)[C@@H](NC(=O)CNC(=O)[C@H](CC(N)=O)NC(=O)[C@H](CO)NC(=O)[C@H](CCCNC(=N)N)NC(=O)[C@H](CCC(=O)O)NC(=O)[C@H](CC(N)=O)NC(=O)[C@H](CC(=O)O)NC(=O)[C@H](CC(C)C)NC(=O)[C@H](Cc1ccc(O)cc1)NC(=O)[C@@H]1CCCN1C(=O)[C@@H]1CCCN1C(=O)[C@@H]1CCCN1C(=O)[C@H](Cc1ccc(O)cc1)NC(=O)[C@H](CCSC)NC(=O)[C@H](Cc1ccccc1)NC(=O)[C@H](CCC(=O)O)NC(=O)[C@@H](NC(=O)[C@@H](N)CCCCN)[C@@H](C)CC)[C@@H](C)O)C(=O)O [L CD28, NH2KIEFMYPPPYLDNERSNGTICOOH] (H-KIEFMYPPPYLDNERSNGTI-OH) | significantly less | 3.8 | 100% | 1.8 | 
 |  | CH3COD[KIEFMYPPPYLDNERSNGTI]DCONH2 (Ac-[dK][dI][dE][dF][dM][dY][dP][dP][dP][dY][dL][dD][dN][dE][dR][dS][dN]G[dT][dI]-NH2) [D CD28, D-peptide (Control), reference compound] | did not show inhibition | 3.7 | 91.5% | 2 | 2675+/−14.2
 |  | CH3COL[ITGNSRENDLYPPPYMFEIK]LCONH2 (Ac-ITGNSRENDLYPPPYMFEIK-NH2) [RL CD28, Reverse-L-peptide (Control), reference compound] | did not show inhibition | 3.4 | 91.5% | 1.7 | 3386+/−23.3
 | did not bind | MYPPPY (listed as Homo sapiens) [hexapeptide, reference compound] | did not show inhibition |  |  |  | 
